In US20160264636A1, “PEPTIDE INHIBITORS OF TEAD/YAP-TAZ INTERACTION” (UNIVERSITE PIERRE ET MARIE CURIE (PARIS 6), priority 2013, published 2016):
pIC50: −log10 of the molar value. Peptide text beside a SMILES is read from it.

Experiments:
[1] = system: MP41 uveal melanoma cells; experiment: MTT cytotoxicity assay, MP41; format: cell-based, human; details: 72 h
Description: (§1) The cytotoxicity of penetrating peptides or chemotherapeutic agents, alone or in combination, was evaluated by the (3-(4,5-dimethylthiazol-2-yl)-2,5-diphenyltetrazolium bromide) tetrazolium (MTT) reduction assay. The cells were seeded in 96-well plates (100 μL/well) at a cell density defined from growth curves. After 24 hours of incubation, cells were treated with the peptides for 72 hours. The wells were rinsed two times with RPMI. After washing, 10 μl of stock MTT solution (5 mg/ml; MTT (SIGMA #M-2128) in PBS Dubecco's 1× without Ca^2+ and Mg^2+) was added to a final volume of 100 μl of culture medium. Cell lines were incubated for additional 4 hours at 37° C. under humid atmosphere with 5% (v/v) CO2. The formation of blue formazan crystals was detected under a microscope. An equal volume of 10% SDS (MERCK, #926.238) in 10 mM HCl was added to each well and the plate was placed in the incubator overnight to dissolve formazan crystals. The plates were mixed to ensure complete solubilisation of formazan crystals and absorbance was measured at 570 nm and 620 nm. The percentage of viable cells was estimated using the formula: % cell viability=ΔOD(570-620) treated/ΔOD(570-620)control×100.
MP41, MP46 and MP66 cell lines come from uveal melanoma patient derived xenografts. They were cultured in RPMI medium supplemented with 20% of FCS.
All the uveal melanoma cell lines were treated for 72 h with different concentrations of the peptides TAZ, “LV”, YAP and TEAD (SEQ ID NO: 35, 36, 37). Cytotoxicity was analysed as described in example 2. […] The best effect was shown in MP41 with about 40% cytotoxicity at 100 μM.

[2] = system: MP46 uveal melanoma cells; format: cell-based, human; details: 72 h
Description: as §1, with “treated/ΔOD(570-620)control×100. […]” for “treated/ΔOD(570-620)control×100.”
(§2) All the uveal melanoma cell lines were treated for 72 h with different concentrations of the peptides TAZ, “LV”, YAP and TEAD (SEQ ID NO: 35, 36, 37). Cytotoxicity was analysed as described in example 2. […]

[3] = system: MP66 uveal melanoma cells; experiment: MTT cytotoxicity assay, MP66; format: cell-based, human; details: MM66 (so in the source); 100 μM; 72 h
Description: as §1, with “treated/ΔOD(570-620)control×100. […]” for “treated/ΔOD(570-620)control×100.”
as §2

ES2 cells = experiment: MTT cytotoxicity assay, ES2; format: cell-based; details: 72 h, 0.1 to 100 μM (FIG. 7)
Description: as §1
ES2, IGROV-1, OVCAR8 and SKOV3 cell lines come from human ovarian cancer.
Cell-penetrating peptides (CPPs) comprising the binding site of TEAD to TAZ or YAP or of YAP to TEAD (TAZ, TEAD and YAP peptides, respectively) were chemically synthesized. The effect of the peptides on cell viability was assayed on several human ovarian cancer cell lines. All the ovarian cancer cell lines were treated for 72 h with different peptide concentrations. Cytotoxicity was analysed as described in example 2.

[4] = system: colon, lung and ovarian cancer cell lines; experiment: MTT cytotoxicity, comparison of TAZ LV and VL peptides; format: cell-based, human; details: all lines tested except ES2: HCT116, HT29, SW480, OVCAR8, A549, HT1975; 72 h; 0.1 to 100 μM (FIGS. 5 to 8)
Description: as §1

## CC[C@H](C)[C@H](NC(=O)[C@H](CCCCN)NC(=O)[C@H](CCCCN)NC(=O)[C@H](CCCCN)NC(=O)[C@H](CCCCN)NC(=O)[C@@H](N)C(C)C)C(=O)N[C@@H](CCCCN)C(=O)N[C@@H](C)C(=O)N[C@@H](CCC(=O)O)C(=O)N[C@H](C(=O)N[C@@H](CCCCN)C(=O)N[C@H](C(=O)N[C@@H](CCCNC(=N)N)C(=O)N[C@@H](CC(C)C)C(=O)N[C@@H](CCC(N)=O)C(=O)N[C@@H](CC(C)C)C(=O)N[C@H](C(=O)N[C@@H](CCC(=O)O)C(=O)N[C@@H](Cc1ccccc1)C(=O)N[C@@H](CO)C(=O)N[C@@H](C)C(=O)N[C@@H](Cc1ccccc1)C(=O)N[C@H](C(=O)N[C@@H](CCC(=O)O)C(=O)N1CCC[C@H]1C(=O)N1CCC[C@H]1C(=O)N[C@@H](CC(=O)O)C(=O)N[C@@H](C)C(=O)N[C@H](C(=O)N[C@@H](CC(=O)O)C(=O)O)C(C)C)C(C)C)C(C)C)[C@@H](C)CC)[C@@H](C)CC [TEAD] (H-VKKKKIKAEIKIRLQLVEFSAFVEPPDAVD-OH; N-terminus and C-terminus assumed)
[1]
  pIC50: 4.46
[2]
  pIC50: 4.36
[3]
  cytotoxicity: 60%

## CC[C@H](C)[C@H](NC(=O)[C@H](CCCCN)NC(=O)[C@H](CCCCN)NC(=O)[C@H](CCCCN)NC(=O)[C@H](CCCCN)NC(=O)[C@@H](N)C(C)C)C(=O)N[C@@H](CCCCN)C(=O)N[C@@H](C)C(=O)N[C@@H](CCC(=O)O)C(=O)N[C@H](C(=O)N[C@@H](CCCCN)C(=O)N[C@H](C(=O)N1CCC[C@H]1C(=O)N1CCC[C@H]1C(=O)N[C@@H](Cc1c[nH]cn1)C(=O)N[C@@H](C)C(=O)N[C@@H](Cc1ccccc1)C(=O)N[C@@H](Cc1ccccc1)C(=O)N[C@@H](CC(C)C)C(=O)N[C@H](C(=O)N[C@@H](CCCCN)C(=O)N[C@@H](Cc1ccccc1)C(=O)N[C@@H](Cc1c[nH]c2ccccc12)C(=O)N[C@@H](C)C(=O)N[C@@H](CC(=O)O)C(=O)N[C@@H](CC(C)C)C(=O)N[C@@H](CC(N)=O)C(=O)N[C@@H](Cc1c[nH]c2ccccc12)C(=O)NCC(=O)N1CCC[C@H]1C(=O)N[C@@H](CO)C(=O)NCC(=O)N[C@@H](CCC(=O)O)C(=O)N[C@@H](CCC(=O)O)C(=O)N[C@@H](C)C(=O)NCC(=O)N[C@@H](C)C(=O)NCC(=O)O)C(C)C)[C@@H](C)CC)[C@@H](C)CC [TAZ “LV”] (H-VKKKKIKAEIKIPPHAFFLVKFWADLNWGPSGEEAGAG-OH; N-terminus and C-terminus assumed)
ES2 cells
  effect on cellular viability, TAZ “LV” compared with TAZ “VL”: more effective than TAZ “VL”
[1]; human, 25 µM
  viability: about 20%
[2]; human, 25 µM
  viability: about 20%
[4]
  effect on cellular viability, TAZ “LV” compared with TAZ “VL”: same effect
